Experimental data as given in patent publication US20250144099A1, “INK4 TUMOR SUPPRESSOR PROTEINS MEDIATE RESISTANCE TO CDK4/6 KINASE INHIBITORS” (MEMORIAL SLOAN-KETTERING CANCER CENTER, priority 2021, published 2025).

Columns and labels:
phosphorylation of Rb = test: Immunoblotting of Rb phosphorylation in cells; type: cell-based, human; conditions: FAT1 loss / CDK6-high CDK4/6i-resistant MCF7 cells
Description: (§1) Cell lysates were collected in RIPA buffer (Thermo Fisher Scientific) supplemented with protease and phosphatase inhibitors (Pierce). Protein concentration was quantified by using the BCA kit (Fisher Scientific). […] of protein lysates were loaded onto 4-12% SDS-PAGE gels (Invitrogen) for electrophoresis and transferred onto nitrocellular membranes. Blots were blocked with Intercept™ (TBS) Blocking Buffer (LI-COR Bioscience #927-60001) and incubated with primary antibody at 4° C. overnight. Secondary antibodies conjugated with fluorescence (LI-COR Bioscience #926-68071 and #926-32210) were incubated for 1 h at room temperature and blots were scanned by Odyssey Clx Imaging System from LI-COR Bioscience.

CDK6 = CDK6 (Homo sapiens, UniProt Q00534); test: Immunoblotting of CDK6 degradation in cells; type: cell-based; parameters: MCF7 cells that lost FAT1 expression and with high CDK6 expression; endogenous in cells; host or cells: MCF-7 FAT1 loss cells (also MCF-7 parental); conditions: FAT1 loss / CDK6-high CDK4/6i-resistant MCF7 cells, 24 h treatment
Description: as §1

CDK4 = target: T1, CDK4 (Homo sapiens, UniProt P11802); test: Immunoblotting of CDK4 degradation in cells; type: cell-based; conditions: FAT1 loss / CDK6-high CDK4/6i-resistant MCF7 cells, 24 h treatment
T1 construct: CDK4 and CDK6 were immunoprecipitated from isogenic drug sensitive (MCF7 parental cells with low CDK6); endogenous in cells; host or cells: MCF-7 parental and MCF-7 FAT1 CRISPR knockout (CDK6-high) cells
Description: as §1

Chain of CDK6 (Q00534 whole entry): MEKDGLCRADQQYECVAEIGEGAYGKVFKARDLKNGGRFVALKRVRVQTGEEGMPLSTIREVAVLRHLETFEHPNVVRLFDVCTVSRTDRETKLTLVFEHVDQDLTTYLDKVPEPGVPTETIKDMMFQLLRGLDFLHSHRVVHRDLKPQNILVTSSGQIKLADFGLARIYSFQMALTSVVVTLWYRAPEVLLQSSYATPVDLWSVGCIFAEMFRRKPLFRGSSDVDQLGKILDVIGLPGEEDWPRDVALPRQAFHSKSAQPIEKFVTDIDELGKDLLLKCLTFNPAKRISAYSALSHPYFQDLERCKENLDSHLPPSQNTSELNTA
T1 sequence (P11802 whole entry): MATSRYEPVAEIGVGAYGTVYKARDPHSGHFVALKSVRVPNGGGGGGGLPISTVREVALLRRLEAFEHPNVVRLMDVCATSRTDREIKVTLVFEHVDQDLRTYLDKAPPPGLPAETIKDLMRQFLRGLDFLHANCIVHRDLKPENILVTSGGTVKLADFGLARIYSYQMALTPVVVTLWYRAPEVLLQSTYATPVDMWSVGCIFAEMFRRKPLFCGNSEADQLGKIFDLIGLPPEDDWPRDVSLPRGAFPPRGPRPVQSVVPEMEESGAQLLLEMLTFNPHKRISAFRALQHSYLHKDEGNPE
T1 sequence (P24385 whole entry partner): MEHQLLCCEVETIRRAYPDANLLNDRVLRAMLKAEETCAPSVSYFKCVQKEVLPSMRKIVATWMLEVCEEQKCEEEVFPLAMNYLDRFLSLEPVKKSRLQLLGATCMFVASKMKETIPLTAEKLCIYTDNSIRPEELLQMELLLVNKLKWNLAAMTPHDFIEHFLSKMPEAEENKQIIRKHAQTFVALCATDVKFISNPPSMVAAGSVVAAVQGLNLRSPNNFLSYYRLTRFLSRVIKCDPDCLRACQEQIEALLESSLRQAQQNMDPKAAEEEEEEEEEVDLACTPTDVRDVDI

SMILES	degradation of CDK6 (CDK6)	degradation of CDK4 (CDK4)	inhibition of phosphorylation of Rb (and downstream E2F1/cyclin A2) (phosphorylation of Rb)
CC(=O)c1c(C)c2cnc(Nc3ccc(N4CCN(CCCC5CCN(c6cccc7c6C(=O)N(C6CCC(=O)NC6=O)C7=O)CC5)CC4)cn3)nc2n(C2CCCC2)c1=O (stereo not drawn) [MS-02-24]	effective in degrading CDK4/6	effective in degrading CDK4/6	inhibiting phosphorylation of Rb
CC(=O)c1c(C)c2cnc(Nc3ccc(N4CCN(CCC5CC(CNc6cccc7c6C(=O)N(C6CCC(=O)NC6=O)C7=O)C5)CC4)cn3)nc2n(C2CCCC2)c1=O (stereo not drawn) [AM-01-125, 4-(((3-(2-(4-(6-((6-acetyl-8-cyclopentyl-5-methyl-7-oxo-7,8-dihydropyrido[2,3-d]pyrimidin-2-yl)amino)pyridin-3-yl)piperazin-1-yl)ethyl)cyclobutyl)methyl)amino)-2-(2,6-dioxopiperidin-3-yl)isoindoline-1,3-dione]	effectively degrade CDK4/CDK6	effectively degrade CDK4/CDK6	inhibit phosphorylation of Rb
CC(=O)c1c(C)c2cnc(Nc3ccc(N4CCN(CCC5CCN(c6cccc7c6C(=O)N(C6CCC(=O)NC6=O)C7=O)CC5)CC4)cn3)nc2n(C2CCCC2)c1=O (stereo not drawn) [MS-01-303, 4-(4-(2-(4-(6-((6-acetyl-8-cyclopentyl-5-methyl-7-oxo-7,8-dihydropyrido[2,3-d]pyrimidin-2-yl)amino)pyridin-3-yl)piperazin-1-yl)ethyl)piperidin-1-yl)-2-(2,6-dioxopiperidin-3-yl)isoindoline-1,3-dione]	effectively degrade CDK4/CDK6	effectively degrade CDK4/CDK6	inhibit phosphorylation of Rb

The next lines start with results.

degradation of CDK6 (CDK6)	degradation of CDK4 (CDK4)	SMILES	inhibition of phosphorylation of Rb (and downstream E2F1/cyclin A2) (phosphorylation of Rb)
effective in degrading CDK4/6	effective in degrading CDK4/6	CC(=O)c1c(C)c2cnc(Nc3ccc(N4CCN(CCC5CCN(c6ccc7c(c6)C(=O)N(C6CCC(=O)NC6=O)C7=O)CC5)CC4)cn3)nc2n(C2CCCC2)c1=O (stereo not drawn) [AM-01-269, 5-(4-(2-(4-(6-((6-acetyl-8-cyclopentyl-5-methyl-7-oxo-7,8-dihydropyrido[2,3-d]pyrimidin-2-yl)amino)pyridin-3-yl)piperazin-1-yl)ethyl)piperidin-1-yl)-2-(2,6-dioxopiperidin-3-yl)isoindoline-1,3-dione]	inhibiting phosphorylation of Rb
effective in degrading CDK4/6	effective in degrading CDK4/6	CC(=O)c1c(C)c2cnc(Nc3ccc(N4CCN(CCC5CCCCN5c5ccc6c(c5)C(=O)N(C5CCC(=O)NC5=O)C6=O)CC4)cn3)nc2n(C2CCCC2)c1=O (stereo not drawn) [AM-01-275, 6-(2-(2-(4-(6-((6-acetyl-8-cyclopentyl-5-methyl-7-oxo-7,8-dihydropyrido[2,3-d]pyrimidin-2-yl)amino)pyridin-3-yl)piperazin-1-yl)ethyl)piperidin-1-yl)-2-(2,6-dioxopiperidin-3-yl)-3a,4-dihydro-1H-isoindole-1,3(2H)-dione]	inhibiting phosphorylation of Rb
